Our source for the EC50 and IC50 values is article PMC3392537 (Neuropharmacology, 2012).

The target of one assay is rat α3β4 (Rattus norvegicus, UniProt P04757+P12392). In words: two-electrode voltage clamp, Xenopus oocytes. Type of assay: cell-based. On the technique in general: Two-electrode voltage clamp is typically applied to oocytes expressing channels or transporters.
Assay [1] concerns the target α3(2)β4(2)α5 (β4–6–α3 concatamer + α5) (Homo sapiens, UniProt P30926+P32297). In words: two-electrode voltage clamp, Xenopus oocytes. Type of assay: cell-based.

Chain of rat α3β4 (P04757 26-499): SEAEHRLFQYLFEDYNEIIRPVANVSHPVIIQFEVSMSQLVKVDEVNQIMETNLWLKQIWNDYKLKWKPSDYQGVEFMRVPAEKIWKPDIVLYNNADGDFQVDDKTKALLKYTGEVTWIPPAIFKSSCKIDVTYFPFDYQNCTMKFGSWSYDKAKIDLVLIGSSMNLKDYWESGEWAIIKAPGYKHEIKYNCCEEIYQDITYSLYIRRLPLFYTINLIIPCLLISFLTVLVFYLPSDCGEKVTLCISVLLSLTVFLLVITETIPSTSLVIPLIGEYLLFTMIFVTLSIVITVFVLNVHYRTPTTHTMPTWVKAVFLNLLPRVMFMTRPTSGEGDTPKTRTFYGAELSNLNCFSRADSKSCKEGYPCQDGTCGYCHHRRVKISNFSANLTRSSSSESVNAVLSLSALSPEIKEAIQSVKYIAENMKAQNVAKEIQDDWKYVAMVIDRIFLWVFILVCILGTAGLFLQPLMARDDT
Chain of rat α3β4 (P12392 21-495): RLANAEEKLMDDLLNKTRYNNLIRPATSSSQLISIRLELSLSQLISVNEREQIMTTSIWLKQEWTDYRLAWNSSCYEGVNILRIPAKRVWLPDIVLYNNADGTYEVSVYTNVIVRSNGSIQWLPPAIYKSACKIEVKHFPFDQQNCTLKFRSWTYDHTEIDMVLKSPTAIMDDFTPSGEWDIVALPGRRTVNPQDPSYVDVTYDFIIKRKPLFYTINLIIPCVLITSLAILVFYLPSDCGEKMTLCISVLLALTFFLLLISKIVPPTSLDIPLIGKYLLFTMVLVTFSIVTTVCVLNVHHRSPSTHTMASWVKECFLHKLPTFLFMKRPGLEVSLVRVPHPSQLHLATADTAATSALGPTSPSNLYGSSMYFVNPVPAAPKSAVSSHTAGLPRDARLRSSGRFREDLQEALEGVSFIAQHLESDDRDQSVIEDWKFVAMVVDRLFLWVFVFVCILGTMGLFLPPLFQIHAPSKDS
Chain of α3(2)β4(2)α5 (β4–6–α3 concatamer + α5) (P32297 32-505): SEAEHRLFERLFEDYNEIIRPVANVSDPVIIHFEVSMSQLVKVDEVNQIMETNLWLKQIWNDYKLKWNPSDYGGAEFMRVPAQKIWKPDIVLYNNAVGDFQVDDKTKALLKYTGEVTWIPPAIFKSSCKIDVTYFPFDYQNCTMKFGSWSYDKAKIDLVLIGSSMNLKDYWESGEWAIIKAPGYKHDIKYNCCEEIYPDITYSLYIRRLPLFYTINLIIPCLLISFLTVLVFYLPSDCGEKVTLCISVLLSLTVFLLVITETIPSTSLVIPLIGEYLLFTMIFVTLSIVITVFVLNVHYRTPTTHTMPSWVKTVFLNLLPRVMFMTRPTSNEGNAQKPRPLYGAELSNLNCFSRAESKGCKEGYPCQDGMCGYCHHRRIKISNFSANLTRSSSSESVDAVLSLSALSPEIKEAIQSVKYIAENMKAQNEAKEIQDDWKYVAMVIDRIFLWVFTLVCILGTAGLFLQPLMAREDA
Chain of α3(2)β4(2)α5 (β4–6–α3 concatamer + α5) (P30926 22-498): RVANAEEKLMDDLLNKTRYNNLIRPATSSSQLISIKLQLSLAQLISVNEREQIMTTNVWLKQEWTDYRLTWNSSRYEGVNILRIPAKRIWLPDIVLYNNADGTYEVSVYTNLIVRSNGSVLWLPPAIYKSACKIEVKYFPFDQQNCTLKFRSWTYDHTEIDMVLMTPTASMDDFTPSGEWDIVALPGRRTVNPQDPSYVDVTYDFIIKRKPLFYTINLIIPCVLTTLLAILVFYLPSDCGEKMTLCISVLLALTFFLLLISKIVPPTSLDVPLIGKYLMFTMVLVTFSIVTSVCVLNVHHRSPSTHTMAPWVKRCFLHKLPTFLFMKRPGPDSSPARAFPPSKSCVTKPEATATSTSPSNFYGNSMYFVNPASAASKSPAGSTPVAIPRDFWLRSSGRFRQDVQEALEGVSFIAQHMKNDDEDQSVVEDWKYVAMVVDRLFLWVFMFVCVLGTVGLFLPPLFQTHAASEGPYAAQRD
Chain of α3(2)β4(2)α5 (β4–6–α3 concatamer + α5) (P30532 23-468 partner): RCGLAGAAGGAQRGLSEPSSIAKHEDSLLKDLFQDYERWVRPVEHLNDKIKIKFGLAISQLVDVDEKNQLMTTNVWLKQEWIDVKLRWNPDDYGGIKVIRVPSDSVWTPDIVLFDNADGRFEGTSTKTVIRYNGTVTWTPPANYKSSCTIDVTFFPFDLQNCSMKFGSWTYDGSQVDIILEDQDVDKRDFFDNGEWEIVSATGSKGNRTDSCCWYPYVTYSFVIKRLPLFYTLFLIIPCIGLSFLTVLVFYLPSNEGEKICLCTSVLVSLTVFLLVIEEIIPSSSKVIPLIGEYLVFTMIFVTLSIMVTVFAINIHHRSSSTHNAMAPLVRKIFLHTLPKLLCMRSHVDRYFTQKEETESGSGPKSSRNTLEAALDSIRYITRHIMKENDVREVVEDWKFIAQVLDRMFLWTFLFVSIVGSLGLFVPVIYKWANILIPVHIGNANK

Regarding `O=c1cccc2n1C[C@@H]1CNC[C@H]2C1` [cytisine], the EC50 (usually the concentration at which the effect is half-maximal) on rat α3β4 came to 520 ± 50 µM.
With `COc1ccc(C=C2CCCN=C2c2cccnc2)c(OC)c1` [GTS-21, 3-(2,4dimethoxybenzylidene)anabaseine], the IC50 (commonly the concentration that gives 50% inhibition) in assay [1] came out at 9.17 ± 1.08 µM.
As for `c1cnc2cc3c(cc2n1)C1CNCC3C1` [varenicline], on rat α3β4, a half-maximal effect (EC50) was put at 28 ± 3.2 µM.
